Patent publication US7365231B2, “Compound with antitumor activity and preparation method therefor” (National Taiwan University of Science & Technology, priority 2005, dated 2008)

Experiments:
[1] = test system: HT-29 cells; assay: Cell cycle analysis by flow cytometry; assay type: cell-based, human
Description: […] […] HT-29 cells were mainly in G0/G1 phase (84.1-86.0%), and only a few percent of cells in S phase (7.4-8.0%) after exposure to 4 μM DPA for 48-72 h. […] The G0/G1 arrest was not induced in the HCT-15 cells treated with 1-8 μM DPA for 24-72 h. […] DPA exerted the dose specific effect for the induced G0/G1 arrest on Colo 205 cells. […] In addition, we noted that DPA-mediated accumulation of Colo205 and HT 29 cells in G1 phase (>80%) was similar to that of DPD (Anti-Cancer Drug 2004; 15:277-80). It is likely that the induced G1-arrest without concomitant apoptosis on Colo 205 and HT 29 colon cancer cells is one unique property of structure I.

[2] = test system: Colo 205 cells; assay: Cell cycle analysis by flow cytometry; assay type: cell-based, human

SMILES: Nc1ccc(Oc2ccc(C3(c4ccc(Oc5ccc(N)c(O)c5)cc4)C4CC5CC(C4)CC3C5)cc2)cc1O [DPA, 2,2-bis(4-(4-amino-3-hydroxyphenoxy)phenyl)adamantane]
- G0/G1 cell-cycle arrest and apoptosis ([1]; HT 29): G0/G1 cell-cycle arrest without concomitant apoptosis
- accumulation of cells in G1 phase ([1]; HT 29): > 80%
- cells in G0/G1 phase ([1]; HT-29, 4 μM DPA for 48-72 h): 84.1-86.0%
- cells in S phase ([1]; HT-29, 4 μM DPA for 48-72 h): 7.4-8.0%
- G0/G1(%) ([1]; HT-29, DPA 1 μM, 24 h): 56.6%
- G2/M(%) ([1]; HT-29, DPA 1 μM, 24 h): 10.3%
- S(%) ([1]; HT-29, DPA 1 μM, 24 h): 33.1%
- G0/G1(%) ([1]; HT-29, DPA 1 μM, 48 h): 61.6%
- G2/M(%) ([1]; HT-29, DPA 1 μM, 48 h): 9.4%
- S(%) ([1]; HT-29, DPA 1 μM, 48 h): 29.0%
- G0/G1(%) ([1]; HT-29, DPA 1 μM, 72 h): 72.6%
- G2/M(%) ([1]; HT-29, DPA 1 μM, 72 h): 7.3%
- S(%) ([1]; HT-29, DPA 1 μM, 72 h): 20.1%
- G0/G1(%) ([1]; HT-29, DPA 2 μM, 24 h): 67.0%
- G2/M(%) ([1]; HT-29, DPA 2 μM, 24 h): 10.0%
- S(%) ([1]; HT-29, DPA 2 μM, 24 h): 23.1%
- G0/G1(%) ([1]; HT-29, DPA 2 μM, 48 h): 77.5%
- G2/M(%) ([1]; HT-29, DPA 2 μM, 48 h): 4.7%
- S(%) ([1]; HT-29, DPA 2 μM, 48 h): 17.8%
- G0/G1(%) ([1]; HT-29, DPA 2 μM, 72 h): 67.3%
- G2/M(%) ([1]; HT-29, DPA 2 μM, 72 h): 2.9%
- S(%) ([1]; HT-29, DPA 2 μM, 72 h): 29.9%
- G0/G1(%) ([1]; HT-29, DPA 4 μM, 24 h): 72.1%
- G2/M(%) ([1]; HT-29, DPA 4 μM, 24 h): 10.9%
- S(%) ([1]; HT-29, DPA 4 μM, 24 h): 17.1%
- G0/G1(%) ([1]; HT-29, DPA 4 μM, 48 h): 84.1%
- G2/M(%) ([1]; HT-29, DPA 4 μM, 48 h): 8.5%
- S(%) ([1]; HT-29, DPA 4 μM, 48 h): 7.4%
- G0/G1(%) ([1]; HT-29, DPA 4 μM, 72 h): 86.0%
- G2/M(%) ([1]; HT-29, DPA 4 μM, 72 h): 6.1%
- S(%) ([1]; HT-29, DPA 4 μM, 72 h): 8.0%
- G0/G1(%) ([1]; HT-29, DPA 8 μM, 24 h): 77.0%
- G2/M(%) ([1]; HT-29, DPA 8 μM, 24 h): 9.6%
- S(%) ([1]; HT-29, DPA 8 μM, 24 h): 13.3%
- G0/G1(%) ([1]; HT-29, DPA 8 μM, 48 h): 79.5%
- G2/M(%) ([1]; HT-29, DPA 8 μM, 48 h): 10.0%
- S(%) ([1]; HT-29, DPA 8 μM, 48 h): 10.6%
- G0/G1(%) ([1]; HT-29, DPA 8 μM, 72 h): 86.3%
- G2/M(%) ([1]; HT-29, DPA 8 μM, 72 h): 6.2%
- S(%) ([1]; HT-29, DPA 8 μM, 72 h): 7.5%
- G0/G1 cell-cycle arrest and apoptosis ([2]; Colo205): G0/G1 cell-cycle arrest without concomitant apoptosis
- cells in G1 phase ([2]; Colo 205, 2 μM DPA for 48-72 h): 84.1-87.1%
- cells in G2/M phase ([2]; Colo 205, 2 μM DPA for 48-72 h): 5.1-5.6%
- cells in S phase ([2]; Colo 205, 2 μM DPA for 48-72 h): 7.8-10.3%
- G0/G1(%) ([2]; Colo 205, DPA 1 μM, 24 h): 58.9%
- G2/M(%) ([2]; Colo 205, DPA 1 μM, 24 h): 12.0%
- S(%) ([2]; Colo 205, DPA 1 μM, 24 h): 29.0%
- G0/G1(%) ([2]; Colo 205, DPA 1 μM, 48 h): 53.3%
- G2/M(%) ([2]; Colo 205, DPA 1 μM, 48 h): 7.6%
- S(%) ([2]; Colo 205, DPA 1 μM, 48 h): 39.0%
- G0/G1(%) ([2]; Colo 205, DPA 1 μM, 72 h): 60.3%
- G0/G1(%) ([2]; Colo 205, DPA 2 μM, 24 h): 67.1%
- G2/M(%) ([2]; Colo 205, DPA 2 μM, 24 h): 48.3%
- S(%) ([2]; Colo 205, DPA 2 μM, 24 h): 24.1%
- G0/G1(%) ([2]; Colo 205, DPA 2 μM, 48 h): 84.1%
- G2/M(%) ([2]; Colo 205, DPA 2 μM, 48 h): 5.6%
- S(%) ([2]; Colo 205, DPA 2 μM, 48 h): 10.3%
- G0/G1(%) ([2]; Colo 205, DPA 2 μM, 72 h): 87.1%
- G2/M(%) ([2]; Colo 205, DPA 2 μM, 72 h): 5.1%
- S(%) ([2]; Colo 205, DPA 2 μM, 72 h): 7.8%
- G0/G1(%) ([2]; Colo 205, DPA 4 μM, 24 h): 67.5%
- G2/M(%) ([2]; Colo 205, DPA 4 μM, 24 h): 8.2%
- S(%) ([2]; Colo 205, DPA 4 μM, 24 h): 24.3%
- G0/G1(%) ([2]; Colo 205, DPA 4 μM, 48 h): 71.6%
- G2/M(%) ([2]; Colo 205, DPA 4 μM, 48 h): 10.4%
- S(%) ([2]; Colo 205, DPA 4 μM, 48 h): 18.1%
- G0/G1(%) ([2]; Colo 205, DPA 4 μM, 72 h): 76.3%
- G2/M(%) ([2]; Colo 205, DPA 4 μM, 72 h): 10.3%
- S(%) ([2]; Colo 205, DPA 4 μM, 72 h): 13.4%
- G0/G1(%) ([2]; Colo 205, DPA 8 μM, 24 h): 70.5%
- G2/M(%) ([2]; Colo 205, DPA 8 μM, 24 h): 5.2%
- S(%) ([2]; Colo 205, DPA 8 μM, 24 h): 24.3%
- G0/G1(%) ([2]; Colo 205, DPA 8 μM, 48 h): 70.6%
- G2/M(%) ([2]; Colo 205, DPA 8 μM, 48 h): 5.2%
- S(%) ([2]; Colo 205, DPA 8 μM, 48 h): 24.1%
- G0/G1(%) ([2]; Colo 205, DPA 8 μM, 72 h): 70.7%
- G2/M(%) ([2]; Colo 205, DPA 8 μM, 72 h): 3.4%
- S(%) ([2]; Colo 205, DPA 8 μM, 72 h): 25.8%
